Test [1] relates to HCC827 cells (EGFR Exon19 del, non-small cell lung cancer cells). Kind of test: Cell viability assay (WST/CCK8), HCC827 cells. The test is classed as cell-based. The following applies: Homo sapiens, HCC827, 72 h, HCC827 (Exon19 Del), 72 hours, read-out: IC50 (half inhibitory concentration). The essentials: (§1)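 Plated 3 000 cells/well in complete RPMI1640 the day before dosing; controls were DMSO (negative) and EGFR TKIs (positive).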

For test [2], the system named is PC9 cells (EGFR Exon 19 del, non-small cell lung cancer cells). Kind of test: Cell viability assay (WST/CCK8), PC9 cells. The test is classed as cell-based. To be noted: Homo sapiens, PC-9, PC9 (Exon19 Del), 72 hours, read-out: IC50 (half inhibitory concentration). The essentials:
as §1

Where [3] appears, read: Table 6, canertinib-based compounds, WST.

Read-outs that look alike come from different tables or passages of the source.

With `COc1cc2ncnc(Nc3ccc(F)c(Cl)c3)c2cc1NC(=O)/C=C/CN1CCN(C(=O)COCCOCCOCCSc2cccc3c2C(=O)N(C2CCC(=O)NC2=O)C3=O)CC1` (centres unmarked) [SIAIS262006, (E)-N-(4-((3-chloro-4-fluorophenyl)amino)-7-methoxyquinazolin-6-yl)-4-(4-(2-(2-(2-(2-((2-(2,6-dioxopiperidin-3-yl)-1,3-dioxoisoindolin-4-yl)thio)ethoxy)ethoxy)ethoxy)acetyl)piperazin-1-yl)but-2-enamide], the IC50 in test [1] (WST (CCK8)) worked out at 35.5 nM; in test [2] (WST (CCK8)), 73 nM.
In the case of `COc1cc2ncnc(Nc3ccc(F)c(Cl)c3)c2cc1NC(=O)/C=C/CN1CCN(C(=O)COCCOCCOCCOCCSc2cccc3c2C(=O)N(C2CCC(=O)NC2=O)C3=O)CC1` (centres unmarked) [SIAIS262007, (E)-N-(4-((3-chloro-4-fluorophenyl)amino)-7-methoxyquinazolin-6-yl)-4-(4-(14-((2-(2,6-dioxopiperidin-3-yl)-1,3-dioxoisoindolin-4-yl)thio)-3,6,9,12-tetraoxatetradecanoyl)piperazin-1-yl)but-2-enamide], the figures for the IC50 in test [1] (WST (CCK8)) and in test [2] (WST (CCK8)) were 26 nM and 84 nM, respectively.
For `COc1cc2ncnc(Nc3ccc(F)c(Cl)c3)c2cc1NC(=O)/C=C/CN1CCN(C(=O)CCOCCOCCNc2cccc3c2C(=O)N(C2CCC(=O)NC2=O)C3=O)CC1` (centres unmarked) [SIAIS262013, (E)-N-(4-((3-chloro-4-fluorophenyl)amino)-7-methoxyquinazolin-6-yl)-4-(4-(3-(2-(2-((2-(2,6-dioxopiperidin-3-yl)-1,3-dioxoisoindolin-4-yl)amino)ethoxy)ethoxy)propanoyl)piperazin-1-yl)but-2-enamide], in that order: 35.8 nM and 28 nM.
For `COc1cc2ncnc(Nc3ccc(F)c(Cl)c3)c2cc1NC(=O)/C=C/CN1CCN(C(=O)CCOCCOCCOCCOCCNc2cccc3c2C(=O)N(C2CCC(=O)NC2=O)C3=O)CC1` (centres unmarked) [SIAIS262014, (E)-N-(4-((3-chloro-4-fluorophenyl)amino)-7-methoxyquinazolin-6-yl)-4-(4-(1-((2-(2,6-dioxopiperidin-3-yl)-1,3-dioxoisoindolin-4-yl)amino)-3,6,9,12-tetraoxapentadecan-15-oyl)piperazin-1-yl)but-2-enamide], in that order: 39.5 nM and 128 nM.
On to `COc1cc2ncnc(Nc3ccc(F)c(Cl)c3)c2cc1NC(=O)/C=C/CN1CCN(C(=O)CCCCCCNc2cccc3c2C(=O)N(C2CCC(=O)NC2=O)C3=O)CC1` (centres unmarked) [SIAIS262015, (E)-N-(4-((3-chloro-4-fluorophenyl)amino)-7-methoxyquinazolin-6-yl)-4-(4-(7-((2-(2,6-dioxopiperidin-3-yl)-1,3-dioxoisoindolin-4-yl)amino)heptanoyl)piperazin-1-yl)but-2-enamide], for which the values for the IC50 in test [1] (WST (CCK8)) and in test [2] (WST (CCK8)) were 3 nM and 12 nM, respectively.
As to `COc1cc2ncnc(Nc3ccc(F)c(Cl)c3)c2cc1NC(=O)/C=C/CN1CCN(C(=O)CCNc2cccc3c2C(=O)N(C2CCC(=O)NC2=O)C3=O)CC1` (centres unmarked) [SIAIS262016, (E)-N-(4-((3-chloro-4-fluorophenyl)amino)-7-methoxyquinazolin-6-yl)-4-(4-(3-((2-(2,6-dioxopiperidin-3-yl)-1,3-dioxoisoindolin-4-yl)amino)propanoyl)piperazin-1-yl)but-2-enamide], the IC50 in test [1] (WST (CCK8)) worked out at 4.5 nM; in test [2] (WST (CCK8)) it was 112 nM.
For `COc1cc2ncnc(Nc3ccc(F)c(Cl)c3)c2cc1NC(=O)/C=C/CN1CCC(N2CCN(CCCC#Cc3cccc4c3CN(C3CCC(=O)NC3=O)C4=O)CC2)CC1` (centres unmarked) [SIAIS262050, (E)-N-(4-((3-chloro-4-fluorophenyl)amino)-7-methoxyquinazolin-6-yl)-4-(4-(4-(5-(2-(2,6-dioxopiperidin-3-yl)-1-oxoisoindolin-4-yl)pent-4-yn-1-yl)piperazin-1-yl)piperidin-1-yl)but-2-enamide], in that order: 0.8 nM and 9.9 nM.
Take `COc1cc2ncnc(Nc3ccc(F)c(Cl)c3)c2cc1NC(=O)/C=C/CN1CCC(N2CCN(CCCCC#Cc3cccc4c3CN(C3CCC(=O)NC3=O)C4=O)CC2)CC1` (centres unmarked) [SIAIS262051, (E)-N-(4-((3-chloro-4-fluorophenyl)amino)-7-methoxyquinazolin-6-yl)-4-(4-(4-(6-(2-(2,6-dioxopiperidin-3-yl)-1-oxoisoindolin-4-yl)hex-5-yn-1-yl)piperazin-1-yl)piperidin-1-yl)but-2-enamide]: the IC50 in test [1] (WST (CCK8)) and in test [2] (WST (CCK8)) was 2.5 nM in each case.
In the case of `COc1cc2ncnc(Nc3ccc(F)c(Cl)c3)c2cc1NC(=O)/C=C/CN1CCC(N2CCN(C(=O)CCc3cccc4c3CN(C3CCC(=O)NC3=O)C4=O)CC2)CC1` (centres unmarked) [SIAIS262052, (E)-N-(4-((3-chloro-4-fluorophenyl)amino)-7-methoxyquinazolin-6-yl)-4-(4-(4-(3-(2-(2,6-dioxopiperidin-3-yl)-1-oxoisoindolin-4-yl)propanoyl)piperazin-1-yl)piperidin-1-yl)but-2-enamide], the IC50 in test [1] (WST (CCK8)) worked out at 1.4 nM; in test [2] (WST (CCK8)), 1.3 nM.
For `COc1cc2ncnc(Nc3ccc(F)c(Cl)c3)c2cc1NC(=O)/C=C/CN1CCC(N2CCN(CCCCCCSc3cccc4c3CN(C3CCC(=O)NC3=O)C4=O)CC2)CC1` (centres unmarked) [SIAIS262065, (E)-N-(4-((3-chloro-4-fluorophenyl)amino)-7-methoxyquinazolin-6-yl)-4-(4-(4-(6-((2-(2,6-dioxopiperidin-3-yl)-1-oxoisoindolin-4-yl)thio)hexyl)piperazin-1-yl)piperidin-1-yl)but-2-enamide], the figures for the IC50 in test [1] (WST (CCK8)) and in test [2] (WST (CCK8)) were 3.1 nM and 185 nM, respectively.
As to `COc1cc2ncnc(Nc3ccc(F)c(Cl)c3)c2cc1NC(=O)/C=C/CN1CCC(NC(=O)CSc2cccc3c2CN(C2CCC(=O)NC2=O)C3=O)CC1` (centres unmarked) [SIAIS262110, (E)-N-(4-((3-chloro-4-fluorophenyl)amino)-7-methoxyquinazolin-6-yl)-4-(4-(2-((2-(2,6-dioxopiperidin-3-yl)-1-oxoisoindolin-4-yl)thio)acetamido)piperidin-1-yl)but-2-enamide], the IC50 in test [1] (WST (CCK8)) was 20 nM; in test [2] (WST (CCK8)) it was 73 nM.
For `COc1cc2ncnc(Nc3ccc(F)c(Cl)c3)c2cc1NC(=O)/C=C/CN1CCC(NC(=O)CCCSc2cccc3c2CN(C2CCC(=O)NC2=O)C3=O)CC1` (centres unmarked) [SIAIS262112, (E)-N-(4-((3-chloro-4-fluorophenyl)amino)-7-methoxyquinazolin-6-yl)-4-(4-(4-((2-(2,6-dioxopiperidin-3-yl)-1-oxoisoindolin-4-yl)thio)butanamido)piperidin-1-yl)but-2-enamide], in that order: 14 nM and 42.5 nM.
Take `C=CC(=O)Nc1cc2c(Nc3ccc(F)c(Cl)c3)ncnc2cc1OCCCN1CCN(C(=O)CCOCCOCCOCCOCCC(=O)N[C@H](C(=O)N2C[C@H](O)C[C@H]2C(=O)NCc2ccc(-c3scnc3C)cc2)C(C)(C)C)CC1` [SIAIS262130, (2S,4R)-1-((S)-19-(4-(3-((6-acrylamido-4-((3-chloro-4-fluorophenyl)amino)quinazolin-7-yl)oxy)propyl)piperazin-1-yl)-2-(tert-butyl)-4,19-dioxo-7,10,13,16-tetraoxa-3-azanonadecanoyl)-4-hydroxy-N-(4-(4-methylthiazol-5-yl)benzyl)pyrrolidine-2-carboxamide]: the IC50 is 47.2 nM in test [1] (setting [3]) and 179 nM in test [2] (setting [3]).

These data come from patent US12564638B2 (SHANGHAITECH UNIVERSITY, priority 2019, dated 2026).
